Measurements as given in patent publication US7399869B2, “Fibroblast activation protein inhibitor compounds and methods” (Genentech, Inc., priority 2005, dated 2008).

Assays:
Format in all cases: biochemical
DPP-7 = molecular target: T1, DPP-7 (Homo sapiens, UniProt Q9UHL4); assay: Inhibition of DPP-7 by Ac-Gly-boroPro 5; conditions: substrate Ala-Pro-AFC, 23° C., progress curves
T1 construct: These constructs encoded amino acids 26-492 of DPP-7; FLAG (N); made in house; host or cells: 293 cells; template plasmid from Origene
Protocol: (§1) To establish whether Ac-Gly-BoroPro 5 inhibits these prolyl peptidases, each protease was cloned, expressed and assayed to determine Km and Ki values and monitor their activity.
(§2) Briefly, proteases were added to a reaction mixture containing inhibitor and substrate (Ac-Ala-AMC for APH, Z-Gly-Pro-AMC for POP, and Ala-Pro-AFC for all others) in assay buffer at 23° C. Protease activity was followed continuously as described above to monitor time-dependent inhibition. Data were plotted as V0/Vi−1 versus [I], where V0 is the rate if substrate hydrolysis in the absence of inhibitor, Vi is the steady state rate of substrate hydrolysis in the presence of inhibitor and [I] is the concentration of Ac-Gly-BoroPro.
(§3) KI values for inhibition of proteases by 5 were determined using the method of progress curves. Briefly, proteases (10-100 nM) were added to a reaction mixture containing inhibitor 5 (0-10 μM) and substrate AP-AFC in assay buffer at 23° C. […] Ki, the true equilibrium inhibition constant was determined according to the following relationship: Ki=Kobs/(1+[S]/Km), where [S] is the concentration of substrate used in the assay and Km is the Michaelis constant for substrate cleavage. […]

[1] = molecular target: T2, full-length (transmembrane) murine FAP (Mus musculus, UniProt P97321); assay: Inhibition of murine FAP in cell lysate
T2 sequence (P97321 1-761): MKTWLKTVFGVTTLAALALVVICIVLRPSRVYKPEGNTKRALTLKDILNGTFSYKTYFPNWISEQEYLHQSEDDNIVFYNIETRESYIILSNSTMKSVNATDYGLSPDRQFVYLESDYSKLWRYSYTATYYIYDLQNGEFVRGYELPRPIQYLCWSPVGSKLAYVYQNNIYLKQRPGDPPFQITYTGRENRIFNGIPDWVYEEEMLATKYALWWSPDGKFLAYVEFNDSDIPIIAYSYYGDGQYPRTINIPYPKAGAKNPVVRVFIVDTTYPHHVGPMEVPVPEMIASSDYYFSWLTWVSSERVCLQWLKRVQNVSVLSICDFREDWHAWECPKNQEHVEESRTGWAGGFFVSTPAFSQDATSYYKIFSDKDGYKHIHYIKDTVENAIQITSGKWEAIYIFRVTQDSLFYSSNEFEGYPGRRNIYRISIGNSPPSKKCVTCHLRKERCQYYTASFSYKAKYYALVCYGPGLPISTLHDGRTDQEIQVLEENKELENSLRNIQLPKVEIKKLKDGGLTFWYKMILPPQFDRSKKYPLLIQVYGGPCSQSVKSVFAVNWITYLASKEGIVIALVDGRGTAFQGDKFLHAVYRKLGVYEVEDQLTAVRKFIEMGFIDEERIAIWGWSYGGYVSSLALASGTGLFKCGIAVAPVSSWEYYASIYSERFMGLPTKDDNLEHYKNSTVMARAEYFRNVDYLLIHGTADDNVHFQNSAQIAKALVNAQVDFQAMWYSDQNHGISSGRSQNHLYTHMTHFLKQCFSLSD

DPP-8 = molecular target: T3, DPP-8 (Homo sapiens, UniProt Q6V1X1); assay: Inhibition of DPP-8 by Ac-Gly-boroPro 5
T3 construct: 2-883 of DPP-8; FLAG (N); made in house; host or cells: 293 cells; template plasmid from Origene
T3 sequence (Q6V1X1 18-898 limits assumed): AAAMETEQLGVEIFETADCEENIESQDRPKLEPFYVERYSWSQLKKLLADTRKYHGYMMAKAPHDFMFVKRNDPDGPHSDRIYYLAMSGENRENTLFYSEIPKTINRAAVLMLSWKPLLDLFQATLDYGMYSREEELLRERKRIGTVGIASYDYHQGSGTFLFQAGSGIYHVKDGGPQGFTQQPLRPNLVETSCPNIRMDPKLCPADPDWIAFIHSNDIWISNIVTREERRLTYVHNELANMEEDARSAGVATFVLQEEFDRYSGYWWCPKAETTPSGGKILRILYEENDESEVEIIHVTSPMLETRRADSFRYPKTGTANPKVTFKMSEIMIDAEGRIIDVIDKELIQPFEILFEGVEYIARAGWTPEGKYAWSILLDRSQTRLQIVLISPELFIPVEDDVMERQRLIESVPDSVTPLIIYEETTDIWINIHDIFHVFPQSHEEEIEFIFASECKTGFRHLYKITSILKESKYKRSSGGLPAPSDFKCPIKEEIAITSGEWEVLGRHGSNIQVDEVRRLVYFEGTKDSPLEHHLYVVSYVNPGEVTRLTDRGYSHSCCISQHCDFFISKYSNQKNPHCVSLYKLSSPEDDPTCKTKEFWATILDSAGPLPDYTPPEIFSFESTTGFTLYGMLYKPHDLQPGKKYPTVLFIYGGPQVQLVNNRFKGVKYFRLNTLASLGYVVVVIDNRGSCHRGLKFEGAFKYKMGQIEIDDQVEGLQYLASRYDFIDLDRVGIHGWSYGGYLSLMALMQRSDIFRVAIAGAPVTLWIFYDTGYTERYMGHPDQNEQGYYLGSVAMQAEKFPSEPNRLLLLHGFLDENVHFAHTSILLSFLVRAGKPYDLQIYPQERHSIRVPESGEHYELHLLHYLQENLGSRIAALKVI
Protocol: as §1, §2, §3

APH = molecular target: T4, APH (Homo sapiens, UniProt P13798); assay: Inhibition of APH by Ac-Gly-boroPro 5; conditions: substrate Ac-Ala-AMC, 23° C., progress curves
T4 construct: 2-732 of APH; FLAG (N); made in house; host or cells: 293 cells; template plasmid from Origene
T4 sequence (P13798 2-732): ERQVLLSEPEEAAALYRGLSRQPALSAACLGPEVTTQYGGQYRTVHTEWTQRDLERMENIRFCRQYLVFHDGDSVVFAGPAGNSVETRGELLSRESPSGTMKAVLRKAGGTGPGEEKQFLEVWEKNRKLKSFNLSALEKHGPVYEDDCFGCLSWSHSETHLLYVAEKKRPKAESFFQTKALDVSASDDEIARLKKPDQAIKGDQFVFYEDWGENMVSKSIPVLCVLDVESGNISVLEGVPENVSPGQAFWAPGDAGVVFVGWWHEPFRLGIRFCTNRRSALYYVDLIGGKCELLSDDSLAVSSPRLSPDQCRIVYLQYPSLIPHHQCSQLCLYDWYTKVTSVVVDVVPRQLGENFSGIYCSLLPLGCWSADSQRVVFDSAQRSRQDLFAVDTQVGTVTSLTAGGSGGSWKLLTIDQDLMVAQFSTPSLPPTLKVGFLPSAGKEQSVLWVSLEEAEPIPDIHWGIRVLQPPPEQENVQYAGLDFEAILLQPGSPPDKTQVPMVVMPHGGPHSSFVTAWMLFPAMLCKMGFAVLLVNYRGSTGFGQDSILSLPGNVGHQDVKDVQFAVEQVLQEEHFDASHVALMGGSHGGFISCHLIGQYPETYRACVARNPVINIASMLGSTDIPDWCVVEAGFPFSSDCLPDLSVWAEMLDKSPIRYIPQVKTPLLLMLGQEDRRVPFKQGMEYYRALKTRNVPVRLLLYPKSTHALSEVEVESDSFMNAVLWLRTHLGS
Protocol: as §1, §2, §3

DPP-9 = molecular target: T5, DPP-9 (Homo sapiens, UniProt Q86TI2); assay: Inhibition of DPP-9 by Ac-Gly-boroPro 5
T5 construct: 2-864 of DPP-9; FLAG (N); made in house; host or cells: 293 cells; template plasmid from Origene
T5 sequence (Q86TI2 2-863 limits assumed): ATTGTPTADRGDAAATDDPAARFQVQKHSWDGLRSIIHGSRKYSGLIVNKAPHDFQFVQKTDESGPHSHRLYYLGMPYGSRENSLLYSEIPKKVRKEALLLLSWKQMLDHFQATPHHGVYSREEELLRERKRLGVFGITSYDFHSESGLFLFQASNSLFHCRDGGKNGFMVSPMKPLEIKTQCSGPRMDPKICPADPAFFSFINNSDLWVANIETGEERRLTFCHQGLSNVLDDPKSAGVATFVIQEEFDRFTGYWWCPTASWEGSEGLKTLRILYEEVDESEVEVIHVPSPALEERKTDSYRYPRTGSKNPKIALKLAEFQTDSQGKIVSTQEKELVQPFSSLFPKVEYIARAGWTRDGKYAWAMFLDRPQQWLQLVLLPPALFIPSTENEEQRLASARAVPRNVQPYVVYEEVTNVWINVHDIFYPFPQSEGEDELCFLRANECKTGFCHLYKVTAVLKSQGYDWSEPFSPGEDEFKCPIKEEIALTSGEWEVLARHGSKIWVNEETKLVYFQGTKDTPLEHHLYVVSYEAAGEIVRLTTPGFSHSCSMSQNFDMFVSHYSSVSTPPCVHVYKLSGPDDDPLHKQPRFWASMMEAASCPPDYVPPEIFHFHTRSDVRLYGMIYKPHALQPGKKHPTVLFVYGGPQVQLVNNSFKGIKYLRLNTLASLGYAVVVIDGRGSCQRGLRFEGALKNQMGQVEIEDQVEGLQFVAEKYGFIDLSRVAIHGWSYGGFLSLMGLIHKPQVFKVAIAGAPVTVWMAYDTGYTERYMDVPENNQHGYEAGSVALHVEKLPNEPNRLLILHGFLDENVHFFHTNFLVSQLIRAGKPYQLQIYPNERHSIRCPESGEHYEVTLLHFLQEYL
Protocol: as §1, §2, §3

[2] = substrate Ala-Pro-AFC, 23° C., progress curves

CC(=O)NCC(=O)N1CCCC1B(O)O (stereo not shown) [N-Ac-Gly-boroPro 5, N-acetyl-gly-boroproline] was tested, and the Ki (DPP-7) was 125 µM, the “inhibits full-length (transmembrane) murine FAP at” value [1] was 117 nM and the “reactivity with DPP-8” value (DPP-8) was “poor reactivity”. The Ki (DPP-8; [2]) was 19.1 µM, the Ki (APH) was 0.575 µM and the “reactivity with DPP-9” value (DPP-9) was “poor reactivity”. It also gave a Ki (DPP-9; [2]) of 8.8 µM.
